# Data: patent US20230110676A1, “Method of Treating Diseases” (priority 2020, published 2023)
# Key:
# daf-16 mutant worm = experiment: Life-extension effect on daf-16 mutant worm; assay type: in vivo, C. elegans
# Text: To address this issue, the large collection of C. elegans mutants in Caenorhabditis Genetics Center was again utilized in this example. Among the mutants examined, the daf-16 mutant results stood out (FIGS. 3A, 3B, and 3C). […] Among genes of the IIS pathway, daf-2 encodes an insulin-like receptor, and it is the starting point of the pathway that eventually leads to daf-16. Daf-16 is the hub, where information from several different pathways merge and then use to regulate many physiological processes. Worm daf-16 mutant has an average life-span that is […] the N2 worm (FIGS. 3A, 3B, and 3C).
# worm = experiment: Protective effect on MPP+ detrimental effect, worm survival rate; assay type: in vivo; conditions: 0.75 mM of MPTP plus 400 μM ergothioneine; ~50% without ergothioneine
# Procedure: However, ergothioneine can offer significant protection. The last column is the worm with no ergothioneine or MPTP treatment. The first column is the worm survival rate after treating with 0.75 mM of MPTP.
# N2 worm = experiment: Protective effect under heat shock conditions; assay type: in vivo, C. elegans; conditions: N2 worm moved from 20° C. to 42° C.; a few hundred micromolar; 3 hours without
# Procedure: Besides the oxidative stress, the protective effect of ergothioneine for the worm under heat shock conditions was also examined. After the worms were cultured multiple days, they were then moved from 20° C. to 42° C. Under such a heat-shock condition, 50% of the worm died within 3 hours. However, in the presence of a few hundred micromolar concentration of ergothioneine, it extends N2 worm's average survival time from 3 hours to nearly 8-9 hours (FIG. 2D).
# worm Eat-2 mutant = experiment: Life-extension effect on caloric-restriction worm mutant; assay type: in vivo, C. elegans; conditions: Eat-2 mutant (partial starvation)
# Procedure: (§1) To test the biological effect of ergothioneine, the first set of experiments was to test the toxicity level of ergothioneine on the worm model. In humans, ergothioneine is enriched up to 2 mM concentration in many parts of the body. […] At 150 μM, the lifespan of the wild type worm can be extended by 30-40% (FIG. 2A). Over the last two decades, there is numerous evidence supporting the life-extension effect by caloric restriction from various model systems (yeast, worm, fly, and mouse). Thus, the effect of ergothioneine on worm Eat-2 mutant was also examined.
# N2 C. elegans = experiment: Life-extension effect on worm under regular culture conditions; assay type: in vivo
# Text: In this example, the biological functions of ergothioneine were investigated using C. elegans as the model system. Using C. elegans as the model has several prominent advantages, including short life cycle, simple experimental manipulation, and rich collection of publicly available genetic mutants (e.g., Caenorhabditis Genetics Center). In addition, its genome comprises ⅔ of human disease-related genes.
# as §1
# [1] = test system: MPTP Parkinson's disease mouse model; experiment: MPTP Parkinson's disease mouse model, pole test; assay type: in vivo; conditions: mice, 20 mg/Kg MPTP for seven days; ergothioneine 10, 20 mg/kg co-injection or 40 mg/kg in water, 7 days
# Procedure: Parkinson mouse model was induced by MPTP. Behavior test was done by testing mouse behavior: how long does it take for the mice to climb to the top of a rod. The shorter time they took, the better their health conditions are. After MPTP treatment, mice are clearly much weaker. […] Significance of difference was determined by unpaired two-tailed t-test. ###P<0.05 compared with control, ***P<0.001, ****P<0.0001 compared with MPPP-treated control. 1) Latency test results of control group with no MPTP or ergothioneine; 2) Latency test results of mice treated with 20 mg/Kg of MPTP for seven days; 3) Latency test results of mice treated with 20 mg/Kg of MPTP and 10 mg/kg of ergothioneine (co-injection) for seven days; 4) Latency test results of mice treated with 20 mg/Kg of MPTP and 20 mg/kg of ergothioneine (co-injection) for seven days; 5) Latency test results of mice treated with 20 mg/Kg of MPTP and 40 mg/kg of ergothioneine in water for seven days.
# [2] = test system: MPTP Parkinson's disease mouse model; experiment: MPTP Parkinson's disease mouse model, latency test on rotatory plate/rod; assay type: in vivo; conditions: mice, 20 mg/Kg MPTP for seven days; ergothioneine 10, 20 mg/kg co-injection or 40 mg/kg in water, 7 days
# Procedure: Parkinson mouse model was induced by 1-methyl-4-phenyl-1,2,3,6-tetrahydropyridine (MPTP), which induced toxicity to dopaminergic neurons (latency test). Behavior test was done by testing mouse behavior: how long can they hold on rotatory plate/rod. The longer they stay, the better their health conditions. After MPTP treatment, mice are clearly much weaker. […] Significance of difference was determined by unpaired two-tailed t-test. #P<0.05 compared with control, *P<0.05, **P<0.01, ****P<0.0001 compared with MPPP-treated control. 1) Latency test results of control group with no MPTP or ergothioneine; 2) Latency test results of mice treated with 20 mg/Kg of MPTP for seven days; 3) Latency test results of mice treated with 20 mg/Kg of MPTP and 10 mg/kg of ergothioneine (co-injection) for seven days; 4) Latency test results of mice treated with 20 mg/Kg of MPTP and 20 mg/kg of ergothioneine (co-injection) for seven days; 5) Latency test results of mice treated with 20 mg/Kg of MPTP and 40 mg/kg of ergothioneine in water for seven days.
# mouse = experiment: Open field experiment, physical activities of disease group at week #57; assay type: in vivo; conditions: mice, week #57, treated vs control disease group
# Text: FIGS. 5A and 5B show the physical activities of untreated disease group and treated disease group at week #57 (open field experiment). A) Real time trace of mouse movement. […] B) Quantitative measurement of the distance each mouse moved during the testing period and the time they spent in the open area.
# N2 worms = experiment: Protective effect under paraquat-induced oxidative stress; assay type: in vivo, C. elegans; conditions: N2 worms treated with paraquat
# Procedure: Encouraged by the clear life-extension effect on worm model under regular culture conditions in the above example, the protective effect of ergothioneine under stresses was examined. In the first experiment, the worm was treated with paraquat to induce oxidative stress. Under the paraquat-induced oxidative stress conditions, N2 worms' life span was decreased by nearly 50% (FIG. 2C vs. FIG. 2A).
# [3] = test system: a-Synuclein Overexpression Worm Model; experiment: Heat shock experiment in α-synuclein overexpression worm Parkinson's disease model; assay type: in vivo; conditions: 1.6 mM, 3 hours without
# Procedure: FIGS. 13A and B show Protective Effect for Heat-shock for Both Wild-type and a-Synuclein Overexpression Worm Model (Parkinson's disease). Heat shock experiment. α-synuclein was expressed to create worm parkinson's disease model on worm. […] With 1.6 mM of ergothioneine, 50% survival time increased to 8 hours.
structure (smiles),measurement,setting,value
C[N+](C)(C)[C@@H](Cc1c[nH]c(=S)[nH]1)C(=O)[O-] [ergothioneine],life-extension effect on daf-16 mutant,daf-16 mutant worm,the life-extension effect was abolished
same,worm survival rate,worm,~90%
same,average survival time under heat shock,N2 worm,8 to 9 h
same,life extension of Eat-2 worm mutant,worm Eat-2 mutant,can further extend the life
same,life-extension effect,"N2 C. elegans; N2 C. elegans, concentrations as low as 50 μM",robust life-extension effect
same,lifespan extension,"N2 C. elegans; wild type worm, 150 μM",30-40%
same,pole test (time to climb to the top of a rod),[1],mice are clearly protected from these detrimental effects
same,latency test (time held on rotatory plate/rod),[2],mice are clearly protected from these detrimental effects
same,physical activities in open field,mouse,demonstrated much more activities
same,protective effect under oxidative stress,N2 worms,clearly offers protective effects
same,50% survival time under heat shock,[3],8 h
